Values quoted from earlier work as cited in patent US9585842B2, “Sustained release guanfacine HCL formulation” (SALMON PHARMA GMBH, priority 2013, dated 2017).
Structures can show the parent of a compound that is named as a salt.

Details: low pH versus higher pH values

For `N=C(N)NC(=O)Cc1c(Cl)cccc1Cl` [Guanfacine hydrochloride], the pH dependent solubility is listed as “more soluble at low pH values than higher pH values”.
